Results from patent US20250339547A1, “MET BCL-XL INHIBITOR ANTIBODY-DRUG CONJUGATES AND METHODS OF USE THEREOF” (Novartis AG, priority 2022, published 2025).
Non-standard residues stand in square brackets, D forms with d. Residues, ends and D or L forms follow the SMILES beside them. *: point of attachment. Dolaproine = CO[C@@H]([C@@H]1CCCN1)[C@@H](C)C(=O)O; Dil = CC[C@H](C)[C@H](NC)[C@@H](CC(=O)O)OC; X1 = C[C@@H](N*)[C@@H](O)c1ccccc1; NMeV = CN[C@H](C(=O)O)C(C)C

Tests used:
[1] = tested on: T-ALL (T-cell Acute Lymphoblastic Leukemia) and different types of solid tumors; conditions: cited from earlier work
lymphoid malignancies = conditions: cited from earlier work
[2] = tested on: hematological malignancies and solid tumors; conditions: several hematological malignancies and solid tumors; cited from earlier work
allogeneic T-cell = conditions: in vitro; cited from earlier work
arthritis and lupus = conditions: mice, animal models of arthritis and lupus; cited from earlier work
[3] = tested on: allogeneic T- and B-cell responses; conditions: after skin transplantation; cited from earlier work
lymphocyte proliferation = conditions: in vitro; cited from earlier work
AsPC-1 = assay: Pancreatic cancer cell line viability, single agent or 1:1 combination (CTG 120h), Example 10; format: cell-based; conditions: Homo sapiens, ASPC1, 120 h, AsPC-1, CTG 120 h
Protocol: (§1) Cell lines were cultured in the media described above at 37° C. in a humidified atmosphere containing 5% CO2. Cells were seeded in 96 well clear bottom plates (96 well clear-bottom, white, Corning reference 3903) and exposed to the mAbs or ADCs as single agents or in 1:1 combination with Paclitaxel, Trametinib or Gemcitabine. When in 1:1 combination, both the combining partner (Paclitaxel, Trametinib or Gemcitabine) and the mAb or ADC were serially diluted (9 concentrations each, triplicates). Effect on cell viability was assessed after 5 days of incubation at 37° C./5% CO2 by quantification of cellular ATP levels using CellTiter-Glo reagent (Promega Ref: G7571) at 75 μL reagent/well. All the conditions were tested in triplicates. Luminescence was quantified on a multipurpose plate reader. IC50s were calculated using standard four-parametric curve fitting. IC50 is defined as the compound concentration at which the CTG signal is reduced to 50% of that measured for the control. Two independent experiments were performed (N1 and N2).

Panc 10.05 = assay: as above; format: cell-based; conditions: Homo sapiens, Panc1005, 120 h, Panc 10.05, CTG 120 h
Protocol: as §1

BxPC-3 = assay: as above; format: cell-based; conditions: Homo sapiens, BXPC-3, 120 h, BxPC-3, CTG 120 h
Protocol: as §1

KP-4 = assay: as above; format: cell-based; conditions: Homo sapiens, KP-4, 120 h, KP-4, CTG 120 h
Protocol: as §1

Hs766T = assay: as above; format: cell-based
Protocol: as §1

[4] = tested on: pancreatic cancer cell lines; assay: Pancreatic cancer cell line panel of Example 10 (CTG 120h); format: cell-based; conditions: pancreatic cancer cell lines of Table 16, single agents
Protocol: Cell lines were cultured in the media described above at 37° C. in a humidified atmosphere containing 5% CO2. […] When in 1:1 combination, both the combining partner (Paclitaxel, Trametinib or Gemcitabine) and the mAb or ADC were serially diluted (9 concentrations each, triplicates). Effect on cell viability was assessed after 5 days of incubation at 37° C./5% CO2 by quantification of cellular ATP levels using CellTiter-Glo reagent (Promega Ref: G7571) at 75 μL reagent/well. All the conditions were tested in triplicates. Luminescence was quantified on a multipurpose plate reader. IC50s were calculated using standard four-parametric curve fitting. […] Two independent experiments were performed (N1 and N2).

NCI-H1975 = assay: Lung cancer cell line viability, single agent or 1:1 combination (CTG 120h), Example 7; format: cell-based; conditions: NCI-H1975, CTG 120 h
Protocol: (§2) Cell lines were cultured in the media described above at 37° C. in a humidified atmosphere containing 5% CO2. Cells were seeded in 96 well clear bottom plates (96 well clear-bottom, white, Corning reference 3903) and exposed to the mAbs, mAbs mixture, ADCs or ADCs mixture as single agents or in 1:1 combination with Paclitaxel. When in 1:1 combination, both the combining partner (Paclitaxel) and the mAb, mAb mixture, ADC or ADC mixture were serially diluted (9 concentrations each, triplicates). Effect on cell viability was assessed after 5 days of incubation at 37° C./5% CO2 by quantification of cellular ATP levels using CellTiter-Glo reagent (Promega Ref: G7571) at 75 μL reagent/well. All the conditions were tested in triplicates. Luminescence was quantified on a multipurpose plate reader. IC50s were calculated using standard four-parametric curve fitting. IC50 is defined as the compound concentration at which the CTG signal is reduced to 50% of that measured for the control. Two independent experiments were performed (N1 and N2).

HCC366 = assay: as above; format: cell-based; conditions: HCC366, CTG 120 h
Protocol: as §2

LU65 = assay: as above; format: cell-based; conditions: LU65, CTG 120 h
Protocol: as §2

NCI-H441 = assay: as above; format: cell-based; conditions: NCI-H441, CTG 120 h
Protocol: as §2

HCC78 = assay: as above; format: cell-based; conditions: HCC78, CTG 120 h
Protocol: as §2

HCC4006 = assay: as above; format: cell-based; conditions: HCC4006, CTG 120 h
Protocol: as §2

CALU1 = assay: as above; format: cell-based; conditions: CALU1, CTG 120 h
Protocol: as §2

HCC827 = assay: as above; format: cell-based; conditions: HCC827, CTG 120 h
Protocol: as §2

NCI-H1838 = assay: as above; format: cell-based; conditions: NCI-H1838, CTG 120 h
Protocol: as §2

H1650 xenografts = assay: In vivo efficacy in combination with osimertinib in Met non amplified NCI-H1650 lung adenocarcinoma human cell model, Example 16; set-up: species or system SCID mice; conditions: osimertinib 15 mg/kg orally on day 1, 2, 3, 4, 7, 8, 9, alone
Description: Below are the procedures for determining the in vivo therapeutic effect of different Bcl-xL ADCs targeting the Met protein as a single agent or in combination with osimertinib. Their activities are compared to the corresponding naked anti-Met mAbs or Ab G-L42C-P25 (Isotype control/non-targeting ADC) formulated in Phosphate-Buffered Saline (PBS) in a Met non amplified NCI-H1650 lung adenocarcinoma human cell line after intravenous (IV) administration.
NCI-H1650 cells, obtained from ATCC, were cultured in RPMI supplemented with 10% SBS, 1% Penicillin-Streptomycin and 1% HEPES. Cells were resuspended in 50% Matrigel® (Corning®) and 0.1 ml containing 10×10^6 cells were subcutaneously inoculated into the right flank of female SCID mice, provided by JANVIER labs.
When tumors reached the appropriate volume (100-200 mm3), mice were randomized, 6 animals per group, using Easy stat software. […]
Mice body weight was monitored 3 times a week and tumor size measured using electronic calipers. […] The last day with at least half of control animals still present in the study (d25), tumor growth inhibition was calculated using the formula: […]
With DTV (Delta Tumor Volume) at Dx, calculated being TV at Dx−TV at Randomization. […]

SMILES: CN(C)CC#Cc1ccc(OCCCc2sc(N3CCc4cccc(C(=O)Nc5nc6ccccc6s5)c4C3)nc2C(=O)O)c(F)c1 [A-1155463]
- in vivo activity in pre-clinical models [1]: exhibited in vivo activity

SMILES: Cc1c(-c2ccc(N3CCc4cccc(C(=O)Nc5nc6ccccc6s5)c4C3)nc2C(=O)O)cnn1CC12CC3CC(CC(C3)C1)C2 [A-1331852]
- in vivo activity in pre-clinical models [1]: exhibited in vivo activity

SMILES: CC1(C)CCC(c2ccc(Cl)cc2)=C(CN2CCN(c3ccc(C(=O)NS(=O)(=O)c4ccc(N[C@H](CCN5CCOCC5)CSc5ccccc5)c(S(=O)(=O)C(F)(F)F)c4)cc3)CC2)C1 [ABT-263, navitoclax]
- antitumor activity in clinical studies (lymphoid malignancies): objective antitumor activity
- activity in pre-clinical models [2]: has shown activity

SMILES: CN(C)CC[C@H](CSc1ccccc1)Nc1ccc(S(=O)(=O)NC(=O)c2ccc(N3CCN(Cc4ccccc4-c4ccc(Cl)cc4)CC3)cc2)cc1[N+](=O)[O-] [ABT-737]
- allogeneic T-cell activation, proliferation, and cytotoxicity (allogeneic T-cell): prevented
- disease severity (arthritis and lupus): significant decrease in disease severity
- allogeneic T- and B-cell responses [3]: inhibited
- inhibition of lymphocyte proliferation (lymphocyte proliferation): potent inhibition

SMILES: Nc1ccn([C@@H]2O[C@H](CO)[C@@H](O)C2(F)F)c(=O)n1 [Gemcitabine, gemcitabine]
- IC50 (AsPC-1; mean): 241 nM
- IC50 (AsPC-1; n1): 406 nM
- IC50 (AsPC-1; n2): 75.2 nM
- IC50 (Panc 10.05; mean): 68.3 nM
- IC50 (Panc 10.05; n1): 58.8 nM
- IC50 (Panc 10.05; n2): 77.9 nM
- IC50 (BxPC-3; mean): 13 nM
- IC50 (BxPC-3; n1): 10.7 nM
- IC50 (BxPC-3; n2): 15.3 nM
- IC50 (KP-4; mean): 10.9 nM
- IC50 (KP-4; n1): 9.74 nM
- IC50 (KP-4; n2): 12 nM
- IC50 (Hs766T; mean): > 30000 nM
- IC50 (Hs766T; n1): > 30000 nM
- IC50 (Hs766T; n2): > 30000 nM
- effect on the viability [4]: induced dose dependent decrease in cell viability with measurable IC50 for most of the cell lines

SMILES: CC[C@H](C)[C@@H]([C@@H](CC(=O)N1CCC[C@H]1[C@H](OC)[C@@H](C)C(=O)N[C@H](C)[C@@H](O)c1ccccc1)OC)N(C)C(=O)[C@@H](NC(=O)[C@@H](NC)C(C)C)C(C)C [MMAE, monomethyl auristatin E] (H-[NMeV]V[Dil][Dolaproine]-X1)
- IC50 (NCI-H1975; Mean): 0.25 nM
- IC50 (NCI-H1975; n1): 0.25 nM
- IC50 (HCC366; Mean): 0.645 nM
- IC50 (HCC366; n1): 0.53 nM
- IC50 (HCC366; n2): 0.76 nM
- IC50 (LU65; Mean): 0.83 nM
- IC50 (LU65; n1): 0.7 nM
- IC50 (LU65; n2): 0.96 nM
- IC50 (NCI-H441; Mean): 0.38 nM
- IC50 (NCI-H441; n1): 0.4 nM
- IC50 (NCI-H441; n2): 0.36 nM
- IC50 (HCC78; Mean): 0.57 nM
- IC50 (HCC78; n1): 0.54 nM
- IC50 (HCC78; n2): 0.6 nM
- IC50 (HCC4006; Mean): 0.19 nM
- IC50 (HCC4006; n1): 0.12 nM
- IC50 (HCC4006; n2): 0.26 nM
- IC50 (CALU1; Mean): 1.01 nM
- IC50 (CALU1; n1): 0.64 nM
- IC50 (CALU1; n2): 1.37 nM
- IC50 (HCC827; Mean): 1.3 nM
- IC50 (HCC827; n1): 1.46 nM
- IC50 (HCC827; n2): 1.15 nM
- IC50 (NCI-H1838; Mean): 60.1 nM
- IC50 (NCI-H1838; n1): 88.2 nM
- IC50 (NCI-H1838; n2): 32 nM

SMILES: C=CC(=O)Nc1cc(Nc2nccc(-c3cn(C)c4ccccc34)n2)c(OC)cc1N(C)CCN(C)C [Osimertinib, osimertinib]
- TGI % (d 25) (H1650 xenografts): 86.3%

SMILES: CC(=O)Nc1cccc(-n2c(=O)n(C3CC3)c(=O)c3c(Nc4ccc(I)cc4F)n(C)c(=O)c(C)c32)c1 [Trametinib, N-(3-{3-cyclopropyl-5-[(2-fluoro-4-iodophenyl)amino]-6,8-dimethyl-2,4,7-trioxo-3,4,6,7-tetrahydropyrido[4,3-d]pyrimidin-1(2H)-yl}phenyl)acetamide]
- IC50 (AsPC-1; mean): 9.81 nM
- IC50 (AsPC-1; n1): 9.01 nM
- IC50 (AsPC-1; n2): 10.6 nM
- IC50 (Panc 10.05; mean): 57.5 nM
- IC50 (Panc 10.05; n1): 32.4 nM
- IC50 (Panc 10.05; n2): 82.6 nM
- IC50 (BxPC-3; mean): 11.7 nM
- IC50 (BxPC-3; n1): 8.21 nM
- IC50 (BxPC-3; n2): 15.2 nM
- IC50 (KP-4; mean): 1660 nM
- IC50 (KP-4; n1): 620 nM
- IC50 (KP-4; n2): 2710 nM
- IC50 (Hs766T; mean): 2.82 nM
- IC50 (Hs766T; n1): 2.53 nM
- IC50 (Hs766T; n2): 3.1 nM
- effect on the viability [4]: induced dose dependent decrease in cell viability with measurable IC50 for most of the cell lines
